According to BindingDB's records for doi:10.1016/j.bmc.2009.08.047 (University of Padova, 2009):

Biological target: Casein kinase II subunit alpha (Rattus norvegicus, UniProt P19139)
Test: CK2 Phosphorylation Assay
Conditions: pH 7.5; 37 °C
Protocol: Inhibitory effect of test compound was assessed in reaction buffer containing purified CK2, synthetic peptide substrate, and [gamma-33P]ATP. Assays were stopped by addition of 0.5 M orthophosphoric acid before spotting aliquots onto phosphocellulose filters. Filters were washed in 75 mM phosphoric acid (5-10 mL/each) four times then once in methanol and dried before counting. Inhibition constants were determined from Lineweaver-Burk double-reciprocal plots of data obtained in experiments run at fixed concentration of peptide substrate and at increasing concentrations of ATP either in the absence or in the presence of variable concentrations of inhibitor. Alternatively inhibition constants were also deduced from the IC50/Ki Cheng-Prusoff relationship.

Casein kinase II subunit alpha, sequence (P19139 whole entry): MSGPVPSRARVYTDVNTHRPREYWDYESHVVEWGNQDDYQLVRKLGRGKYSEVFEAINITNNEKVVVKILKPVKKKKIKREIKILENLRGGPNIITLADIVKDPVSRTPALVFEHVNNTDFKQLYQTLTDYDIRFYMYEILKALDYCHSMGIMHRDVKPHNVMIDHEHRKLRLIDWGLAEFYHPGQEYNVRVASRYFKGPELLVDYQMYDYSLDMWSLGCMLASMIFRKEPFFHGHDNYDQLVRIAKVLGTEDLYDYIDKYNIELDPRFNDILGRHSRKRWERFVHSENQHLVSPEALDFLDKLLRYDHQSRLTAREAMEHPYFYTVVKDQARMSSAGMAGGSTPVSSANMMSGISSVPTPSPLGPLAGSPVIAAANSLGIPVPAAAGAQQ

- Ki: 100 nM
Structure (SMILES): Brc1c(I)c(I)c2[nH]cnc2c1I [iodinated benzimidazole, 3a]
